In patent US9757353B2, “Methods of inducing anesthesia” (THE REGENTS OF THE UNIVERSITY OF CALIFORNIA, priority 2012, dated 2017):

Assays:
[1] = target: T1, NMDA (NR1/NR2A) receptors (Rattus norvegicus, UniProt P35439+Q00959); assay: Oocyte two-electrode voltage clamp, NMDA receptor currents; format: cell-based; conditions: for NMDA % Direct Effect: drug response without receptor agonist, percent of control agonist peak, saturated drug, mean ± SEM, 5-6 oocytes; for direct effect on NMDA receptors (in words): absence of glutamate and glycine agonist; for NMDA Drug Response: saturated drug + agonist
T1 construct: expressed in transfected cells; host or cells: Xenopus laevis oocytes, injected with in vitro transcribed RNA (1:1), clones a gift from Dr. R. A. Harris
Text: Methods: GABAA (α1β2γ2s) or NMDA (NR1/NR2A) receptors were expressed in oocytes and studied using standard two-electrode voltage clamp techniques. Hydrocarbons from 14 different organic functional groups were studied at saturated concentrations, and compounds within each group differed only by the carbon number at the ω-position or within a saturated ring. An effect on GABAA or NMDA receptors was defined as a 10% or greater reversible current change from baseline that was statistically different from zero.
Oocyte Collection and Receptor Expression. An ovary from tricaine-anesthetized Xenopus laevis frogs was surgically removed using a protocol approved by the Institutional Animal Care and Use Committee at the University of California, Davis. Following manual disruption of the ovarian lobule septae, the ovary was incubated in 0.2% Type I collagenase (Worthington Biochemical, Lakewood, N.J.) to defolliculate oocytes which were washed and stored in fresh and filtered modified Barth's solution composed of 88 mM NaCl, 1 mM KCl, 2.4 mM NaHCO3, 20 mM HEPES, 0.82 mM MgSO4, 0.33 mM Ca(NO3)2, 0.41 mM CaCl2, 5 mM sodium pyruvate, gentamycin, penicillin, streptomycin, and corrected to pH=7.4. All salts and antibiotics were A.C.S. grade (Fisher Scientific, Pittsburgh, Pa.).
Clones used were provided as a gift from Dr. R. A. Harris (University of Texas, Austin) and were sequenced and compared to references in the National Center for Biotechnology Information database to confirm the identity of each gene. GABAA receptors were expressed using clones for the human GABAA α1 and the rat GABAA β2 and γ2s subunits in pCIS-II vectors. […] In separate oocytes, glutamate receptors were expressed using rat NMDA NR1 clones in a pCDNA3 vector and rat NMDA NR2A clones in a Bluescript vector. RNA encoding each subunit was prepared using a commercial transcription kit (T7 mMessage mMachine, Ambion, Austin, Tex.) was mixed in a 1:1 ratio, and 1-10 ng of total RNA was injected into oocytes and studied 1-2 days later.
NMDA Receptor Electrophysiology Studies. […] Briefly, baseline perfusion solutions were the same as for GABAA with the substitution of equimolar BaCl2 for calcium salts and the addition of 0.1 mM EGTA; this constituted barium frog Ringer's solution (BaFR). Agonist solutions for NMDA studies also contained 0.1 mM glutamate (E) and 0.01 mM glycine (G) to constitute a BaFREG solution.
The syringe pump and perfusion chamber apparatus as well as the clamp holding potential and baseline-agonist exposure protocols were identical to that described for the GABAA studies. The same test compounds, concentrations, and preparative methods were used in NMDA voltage clamp studies as in the GABAA voltage clamp studies (Table 2).
Response Calculations and Data Analysis. Modulating drug responses were calculated as the percent of the control (baseline) peak as follows:
[formula] where ID and IB were the peak currents measured during agonist+drug and agonist baseline perfusions, respectively. When present, direct receptor activation by a drug was similarly calculated as a percent of the agonist response. […] A lack of receptor response (cut-off) was defined as a <10% change from baseline current that was statistically indistinguishable from zero using a two-tailed Student t-test.

[2] = target: GABAA (α1β2γ2s) receptors (UniProt P14867+P18508+P63138); assay: Oocyte two-electrode voltage clamp, GABAA receptor currents; conditions: for GABAA % Direct Effect: drug response without receptor agonist, percent of control agonist peak, saturated drug, mean ± SEM, 5-6 oocytes; for GABAA Drug Response: saturated drug + agonist
Description: GABAA receptors were expressed using clones for the human GABAA α1 and the rat GABAA β2 and γ2s subunits in pCIS-II vectors. […] These plasmid ratios ensured incorporation of the γ-subunit into expressed receptors, as confirmed via receptor potentiation to 10 μM chlordiazepoxide or insensitivity to 10 μM zinc chloride during co-application with GABA. In separate oocytes, glutamate receptors were expressed using rat NMDA NR1 clones in a pCDNA3 vector and rat NMDA NR2A clones in a Bluescript vector. RNA encoding each subunit was prepared using a commercial transcription kit (T7 mMessage mMachine, Ambion, Austin, Tex.) was mixed in a 1:1 ratio, and 1-10 ng of total RNA was injected into oocytes and studied 1-2 days later.
Oocytes were studied in a 250 μL linear-flow perfusion chamber with solutions administered by syringe pump at 1.5 ml/min with gastight glass syringes and Teflon tubing. Oocyte GABAA currents were studied using standard two-electrode voltage clamping techniques at a holding potential of 80 mV using a 250 μL channel linear-flow perfusion chamber with solutions administered by syringe pump at 1.5 mL/min.
After FR perfusion for 5 min, oocytes were exposed to 30 sec FR-GABA followed by another 5 min FR washout; this was repeated until stable GABAA-elicited peaks were obtained. Next, FR containing a saturated solution of the study drug (Table 2)—or for gaseous study compounds a vapor pressure equal to 90% of barometric pressure with balance oxygen—was used to perfuse the oocyte chamber for 2 min followed by perfusion with a FR-GABA solution containing the identical drug concentration for 30 sec.
[formula] where ID and IB were the peak currents measured during agonist+drug and agonist baseline perfusions, respectively. When present, direct receptor activation by a drug was similarly calculated as a percent of the agonist response. Average current responses for each drug and channel were described by mean±SD. A lack of receptor response (cut-off) was defined as a <10% change from baseline current that was statistically indistinguishable from zero using a two-tailed Student t-test.

[3] = saturating aqueous concentration

Chain of GABAA (α1β2γ2s) receptors (P14867 28-456): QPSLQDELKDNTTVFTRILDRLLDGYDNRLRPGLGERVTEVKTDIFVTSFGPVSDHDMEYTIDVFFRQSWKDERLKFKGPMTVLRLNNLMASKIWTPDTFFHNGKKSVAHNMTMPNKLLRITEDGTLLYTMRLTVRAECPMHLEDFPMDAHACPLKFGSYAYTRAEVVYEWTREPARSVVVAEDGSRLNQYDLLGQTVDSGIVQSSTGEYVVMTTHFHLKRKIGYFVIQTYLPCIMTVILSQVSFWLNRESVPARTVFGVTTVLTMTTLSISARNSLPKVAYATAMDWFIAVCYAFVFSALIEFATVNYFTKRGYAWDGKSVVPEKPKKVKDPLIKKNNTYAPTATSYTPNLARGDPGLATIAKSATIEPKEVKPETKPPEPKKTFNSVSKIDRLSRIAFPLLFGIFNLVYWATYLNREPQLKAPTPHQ
Chain of GABAA (α1β2γ2s) receptors (P63138 25-474 limits assumed): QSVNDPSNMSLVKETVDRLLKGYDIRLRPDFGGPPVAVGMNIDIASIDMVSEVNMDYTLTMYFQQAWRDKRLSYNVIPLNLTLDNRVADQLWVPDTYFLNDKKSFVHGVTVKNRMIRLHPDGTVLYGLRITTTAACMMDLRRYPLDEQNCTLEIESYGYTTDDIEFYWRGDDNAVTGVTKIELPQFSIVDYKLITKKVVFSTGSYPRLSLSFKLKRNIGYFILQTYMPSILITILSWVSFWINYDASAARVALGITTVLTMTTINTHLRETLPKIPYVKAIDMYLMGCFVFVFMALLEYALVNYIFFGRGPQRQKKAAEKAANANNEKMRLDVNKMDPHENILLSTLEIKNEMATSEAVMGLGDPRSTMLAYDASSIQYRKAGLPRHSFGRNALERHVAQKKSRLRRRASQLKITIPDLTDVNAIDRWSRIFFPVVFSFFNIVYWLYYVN
Chain of GABAA (α1β2γ2s) receptors (P18508 39-466): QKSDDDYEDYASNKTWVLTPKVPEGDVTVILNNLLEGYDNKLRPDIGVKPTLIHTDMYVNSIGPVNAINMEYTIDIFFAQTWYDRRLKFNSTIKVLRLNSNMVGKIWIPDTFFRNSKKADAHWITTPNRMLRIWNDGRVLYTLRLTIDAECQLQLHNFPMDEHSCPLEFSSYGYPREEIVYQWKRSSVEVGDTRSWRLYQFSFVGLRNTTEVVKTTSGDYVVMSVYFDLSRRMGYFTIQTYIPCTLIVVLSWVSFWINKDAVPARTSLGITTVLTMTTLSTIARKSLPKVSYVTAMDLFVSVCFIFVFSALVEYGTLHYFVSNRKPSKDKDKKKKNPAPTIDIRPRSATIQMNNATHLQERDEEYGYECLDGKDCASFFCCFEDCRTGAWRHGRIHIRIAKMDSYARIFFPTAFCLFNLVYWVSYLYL
T1 sequence (Q00959 23-1464, other chains not shown): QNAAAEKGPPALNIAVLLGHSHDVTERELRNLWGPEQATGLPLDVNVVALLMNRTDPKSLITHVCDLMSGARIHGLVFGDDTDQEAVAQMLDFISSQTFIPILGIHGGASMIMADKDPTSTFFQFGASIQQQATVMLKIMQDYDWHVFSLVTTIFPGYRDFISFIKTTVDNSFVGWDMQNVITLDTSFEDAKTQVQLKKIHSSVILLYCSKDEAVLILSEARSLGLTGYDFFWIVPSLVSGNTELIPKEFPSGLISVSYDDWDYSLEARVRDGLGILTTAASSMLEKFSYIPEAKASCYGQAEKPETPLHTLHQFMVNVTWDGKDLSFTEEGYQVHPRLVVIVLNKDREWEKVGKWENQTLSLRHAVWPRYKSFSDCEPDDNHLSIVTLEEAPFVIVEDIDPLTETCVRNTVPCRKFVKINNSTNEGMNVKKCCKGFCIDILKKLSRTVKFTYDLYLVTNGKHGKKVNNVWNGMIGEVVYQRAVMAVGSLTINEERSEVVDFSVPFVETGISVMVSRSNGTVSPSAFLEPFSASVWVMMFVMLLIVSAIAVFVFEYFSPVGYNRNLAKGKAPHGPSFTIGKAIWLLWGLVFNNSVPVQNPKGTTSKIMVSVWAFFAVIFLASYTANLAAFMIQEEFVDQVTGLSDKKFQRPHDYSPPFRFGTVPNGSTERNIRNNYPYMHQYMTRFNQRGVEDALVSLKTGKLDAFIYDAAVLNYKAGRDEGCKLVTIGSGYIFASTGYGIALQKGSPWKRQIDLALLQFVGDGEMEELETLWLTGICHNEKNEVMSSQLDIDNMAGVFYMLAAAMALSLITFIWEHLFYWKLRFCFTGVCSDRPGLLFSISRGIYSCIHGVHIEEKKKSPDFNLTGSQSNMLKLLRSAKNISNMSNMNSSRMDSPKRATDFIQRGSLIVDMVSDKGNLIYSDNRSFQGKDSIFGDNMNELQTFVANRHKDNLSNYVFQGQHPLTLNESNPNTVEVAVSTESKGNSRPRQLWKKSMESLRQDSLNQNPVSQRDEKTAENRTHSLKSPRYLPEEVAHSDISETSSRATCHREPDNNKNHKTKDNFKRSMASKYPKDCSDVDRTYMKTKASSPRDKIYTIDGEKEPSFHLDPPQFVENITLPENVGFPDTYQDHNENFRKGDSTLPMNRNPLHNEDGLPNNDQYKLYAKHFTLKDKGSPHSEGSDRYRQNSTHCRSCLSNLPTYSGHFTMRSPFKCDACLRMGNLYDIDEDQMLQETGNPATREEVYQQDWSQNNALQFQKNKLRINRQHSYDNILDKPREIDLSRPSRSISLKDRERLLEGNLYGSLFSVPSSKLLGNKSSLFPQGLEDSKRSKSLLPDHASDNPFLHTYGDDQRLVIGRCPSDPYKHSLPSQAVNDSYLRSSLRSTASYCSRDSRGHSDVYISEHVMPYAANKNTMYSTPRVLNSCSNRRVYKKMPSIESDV

Row | Compound | NMDA % Direct Effect [1] | GABAA % Direct Effect [2] | GABAA Drug Response [2] | direct effect on NMDA receptors (in words) [1] | NMDA Drug Response [1] | NMDA receptor modulation (in words) [1, 3] | GABAA receptor modulation (in words) [2, 3]
1 | CCCCCCCCCCCCCCCCCCN [1-octadecanamine] | none | none | + (potentiation (+) for drug+agonist responses greater than the control agonist peak) | – | – | – | –
2 | CCCCCF [1-fluoropentane] | none | none | + (potentiation (+) for drug+agonist responses greater than the control agonist peak) | – | – | – | –
3 | N-methylpiperadine | – | – | – | direct activation of NMDA receptors | – | – | –
4 | CCCCCCCCC=O [nonanal] | none | none | + (potentiation (+) for drug+agonist responses greater than the control agonist peak) | – | 0 (no response (0) for drug+agonist responses that differ by <10% from the control agonist peak) | – | –
5 | CCCCCCCCCC=O [decanal] | none | none | + (potentiation (+) for drug+agonist responses greater than the control agonist peak) | – | 0 (no response (0) for drug+agonist responses that differ by <10% from the control agonist peak) | – | –
6 | CCCCCOCCCCC [dipentylether] | none | none | + (potentiation (+) for drug+agonist responses greater than the control agonist peak) | – | 0 (no response (0) for drug+agonist responses that differ by <10% from the control agonist peak) | – | –
7 | CCCCCCCCCCO [1-decanol] | none | none | + (potentiation (+) for drug+agonist responses greater than the control agonist peak) | – | – | – | –
8 | CCCCCCCCF [1-fluoroctane] | none | none | + (potentiation (+) for drug+agonist responses greater than the control agonist peak) | – | 0 (no response (0) for drug+agonist responses that differ by <10% from the control agonist peak) | – | –
9 | CCCCCCCCCC(C)=O [2-undecanone] | none | none | + (potentiation (+) for drug+agonist responses greater than the control agonist peak) | – | 0 (no response (0) for drug+agonist responses that differ by <10% from the control agonist peak) | – | –
10 | CCCCCCF [1-fluorohexane] | none | – | + (potentiation (+) for drug+agonist responses greater than the control agonist peak) | – | 0 (no response (0) for drug+agonist responses that differ by <10% from the control agonist peak) | – | –
11 | CCCC [butane] | none | none | + (potentiation (+) for drug+agonist responses greater than the control agonist peak) | – | – | negatively modulates NMDA receptors | positively modulate GABAA receptors
12 | C=CCCCC [1-hexene] | none | none | + (potentiation (+) for drug+agonist responses greater than the control agonist peak) | – | 0 (no response (0) for drug+agonist responses that differ by <10% from the control agonist peak) | – | –
13 | CCCCCCCCCC(=O)OCC [ethyl decanoate] | none | none | + (potentiation (+) for drug+agonist responses greater than the control agonist peak) | – | 0 (no response (0) for drug+agonist responses that differ by <10% from the control agonist peak) | – | –
14 | C#CCCCCC [1-heptyne] | none | none | + (potentiation (+) for drug+agonist responses greater than the control agonist peak) | – | – | – | –
15 | C=CCCC [1-pentene] | none | 2 ± 3% | + (potentiation (+) for drug+agonist responses greater than the control agonist peak) | – | – | – | –
16 | CN1CCOCC1 [4-methylmorpholine] | – | – | – | direct activation of NMDA receptors | – | – | –

Continued, in another order:

Row | NMDA % Direct Effect [1] | GABAA % Direct Effect [2] | Compound | GABAA Drug Response [2] | direct effect on NMDA receptors (in words) [1] | NMDA Drug Response [1] | NMDA receptor modulation (in words) [1, 3] | GABAA receptor modulation (in words) [2, 3]
17 | none | none | CCCCCCCCC(C)=O [2-decanone] | + (potentiation (+) for drug+agonist responses greater than the control agonist peak) | – | – | – | –
18 | none | none | CCCCCCCCCCCCCCCCCCCCN [1-eicosanamine] | + (potentiation (+) for drug+agonist responses greater than the control agonist peak) | – | 0 (no response (0) for drug+agonist responses that differ by <10% from the control agonist peak) | – | –
19 | none | none | C1CCCCC1 [cyclohexane] | + (potentiation (+) for drug+agonist responses greater than the control agonist peak) | – | 0 (no response (0) for drug+agonist responses that differ by <10% from the control agonist peak) | – | –
20 | none | none | CCCCCCCC(=O)OCC [ethyl octanoate] | + (potentiation (+) for drug+agonist responses greater than the control agonist peak) | – | – | – | –
21 | none | none | CCCCCCCCSCC [1-(ethylthio)-octane] | + (potentiation (+) for drug+agonist responses greater than the control agonist peak) | – | 0 (no response (0) for drug+agonist responses that differ by <10% from the control agonist peak) | – | –
22 | none | none | CCCCCCCCCCC=O [undecanal] | + (potentiation (+) for drug+agonist responses greater than the control agonist peak) | – | 0 (no response (0) for drug+agonist responses that differ by <10% from the control agonist peak) | – | –
23 | none | – | CCCCCCS [1-hexanethiol] | + (potentiation (+) for drug+agonist responses greater than the control agonist peak) | – | 0 (no response (0) for drug+agonist responses that differ by <10% from the control agonist peak) | – | –
24 | none | none | CCCCCCSCC [1-(ethylthio)-hexane] | + (potentiation (+) for drug+agonist responses greater than the control agonist peak) | – | – | – | –
25 | none | – | CCCCCCCC=O [octanal] | + (potentiation (+) for drug+agonist responses greater than the control agonist peak) | – | – | – | –
26 | none | none | C#CCCCCCC [1-octyne] | + (potentiation (+) for drug+agonist responses greater than the control agonist peak) | – | 0 (no response (0) for drug+agonist responses that differ by <10% from the control agonist peak) | – | –
27 | none | none | CCCCCCCCCCCO [1-undecanol] | + (potentiation (+) for drug+agonist responses greater than the control agonist peak) | – | 0 (no response (0) for drug+agonist responses that differ by <10% from the control agonist peak) | – | –
28 | none | none | CCCCCCCCCCCCO [1-dodecanol] | + (potentiation (+) for drug+agonist responses greater than the control agonist peak) | – | 0 (no response (0) for drug+agonist responses that differ by <10% from the control agonist peak) | – | –
29 | none | none | CCCCCCCCCCC(C)=O [2-dodecanone] | + (potentiation (+) for drug+agonist responses greater than the control agonist peak) | – | 0 (no response (0) for drug+agonist responses that differ by <10% from the control agonist peak) | – | –
